Assay results as given in PubChem BioAssay AID248 (DTP/NCI, 2004).
Inconclusive results and toxic doses are left out. No stated cut-off is given here; in the data, active means T/C of 150% or more; inactive means T/C below 125%.

Tested on: L1210 leukemia ip in BDF1 mice, survival T/C
Assay: NCI In Vivo Anticancer Drug Screen. Data for tumor model L1210 Leukemia (intraperitoneal) in B6D2F1 (BDF1) mice
Details: endpoint: mean survival time, higher = longer survival
Outline: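 In this screen, tumor-bearing mice given compound are compared to those given vehicle, and their survival values are reported as a treated-to-control quotient.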

[1] = dose: 100.0 mg/kg/injection, schedule: Q01DX009 (ip), vehicle: Klucel (hydroxypropylcellulose) (HPC)
[2] = dose: 200.0 mg/kg/injection, schedule: Q01DX009 (ip), vehicle: Klucel (hydroxypropylcellulose) (HPC)
[3] = dose: 400.0 mg/kg/injection, schedule: Q01DX009 (ip), vehicle: Klucel (hydroxypropylcellulose) (HPC)
[4] = dose: 50.0 mg/kg/injection, schedule: Q01DX001 (ip), vehicle: carboxymethylcellulose (CMC)
[5] = dose: 100.0 mg/kg/injection, schedule: Q01DX001 (ip), vehicle: carboxymethylcellulose (CMC)
[6] = dose: 200.0 mg/kg/injection, schedule: Q01DX001 (ip), vehicle: carboxymethylcellulose (CMC)
[7] = dose: 400.0 mg/kg/injection, schedule: Q01DX001 (ip), vehicle: carboxymethylcellulose (CMC)
[8] = dose: 100.0 mg/kg/injection, schedule: Q01DX009 (ip), vehicle: saline
[9] = dose: 200.0 mg/kg/injection, schedule: Q01DX009 (ip), vehicle: saline
[10] = dose: 400.0 mg/kg/injection, schedule: Q01DX009 (ip), vehicle: saline
[11] = dose: 100.0 mg/kg/injection, schedule: Q01DX001 (ip), vehicle: saline
[12] = dose: 200.0 mg/kg/injection, schedule: Q01DX001 (ip), vehicle: saline
[13] = dose: 400.0 mg/kg/injection, schedule: Q01DX001 (ip), vehicle: saline
[14] = dose: 100.0 mg/kg/injection, schedule: Q04DX003 (ip), vehicle: Klucel (hydroxypropylcellulose) (HPC)
[15] = dose: 200.0 mg/kg/injection, schedule: Q04DX003 (ip), vehicle: Klucel (hydroxypropylcellulose) (HPC)
[16] = dose: 400.0 mg/kg/injection, schedule: Q04DX003 (ip), vehicle: Klucel (hydroxypropylcellulose) (HPC)
[17] = dose: 100.0 mg/kg/injection, schedule: Q01DX009 (ip), vehicle: saline with Tween-80
[18] = dose: 200.0 mg/kg/injection, schedule: Q01DX009 (ip), vehicle: saline with Tween-80
[19] = dose: 400.0 mg/kg/injection, schedule: Q01DX009 (ip), vehicle: saline with Tween-80
[20] = dose: 100.0 mg/kg/injection, schedule: Q04DX003 (ip), vehicle: saline
[21] = dose: 200.0 mg/kg/injection, schedule: Q04DX003 (ip), vehicle: saline

Measured: T/C

CCOC(=O)c1ccc(NC(=O)Oc2cc(=O)oc3ccccc23)cc1
inactive: [1] 97 % of control | [2] 95 % of control | [3] 96 % of control

O=C1C=CC(=O)N1CCCCN1C(=O)C=CC1=O
inactive: dose: 11.1 mg/kg/injection, schedule: Q01DX Z (ip), vehicle: methylcellulose (MC) 96 % of control | dose: 16.6 mg/kg/injection, schedule: Q01DX Z (ip), vehicle: methylcellulose (MC) 106 % of control | dose: 25.0 mg/kg/injection, schedule: Q01DX Z (ip), vehicle: methylcellulose (MC) 93 % of control

Cc1ccc(C(=O)OCC2OC(OC3CC(OC(=O)c4ccc(C)cc4)C(COC(=O)c4ccc(C)cc4)O3)CC2OC(=O)c2ccc(C)cc2)cc1 (centres undefined)
inactive: [4] 101 % of control | [5] 87 % of control | [6] 101 % of control | [7] 97 % of control

Cn1c(=O)c2c(ncn2CCCCO)n(C)c1=O
inactive: [8] 94 % of control | [9] 95 % of control | [10] 92 % of control

O=[N+]([O-])c1ccc(CC2=NCCc3cc4c(cc32)OCO4)cc1
inactive: [11] 98 % of control | [12] 96 % of control | [13] 105 % of control

CC1(C)C(C#N)C(=O)N=C(N)C1C(N)=O (centres undefined)
inactive: dose: 25.0 mg/kg/injection, schedule: Q01DX009 (ip), vehicle: Klucel (hydroxypropylcellulose) (HPC) 94 % of control | dose: 50.0 mg/kg/injection, schedule: Q01DX009 (ip), vehicle: Klucel (hydroxypropylcellulose) (HPC) 94 % of control | [1] 94 % of control | [14] 92 % of control

COC(=O)c1ccc(C(=O)OC)c(NC(=O)CC(=O)c2ccc([N+](=O)[O-])cc2)c1
inactive: [1] 88 % of control | [14] 101 % of control | [2] 91 % of control | [15] 90 % of control | [3] 91 % of control | [16] 96 % of control

CCC(CO)Nc1nc2c(Cl)cc(Cl)cc2c2ccccc12 (centres undefined)
inactive: [14] 100 % of control | [15] 100 % of control | [16] 90 % of control

CN=C(NC)c1cccc(NC(=O)c2ccc(C(=O)Nc3cccc(C(=NC)NC)c3)cc2)c1
inactive: dose: 1.2 mg/kg/injection, schedule: Q01DX Z (ip), vehicle: carboxymethylcellulose (CMC) 93 % of control | dose: 2.5 mg/kg/injection, schedule: Q01DX Z (ip), vehicle: carboxymethylcellulose (CMC) 96 % of control | dose: 5.0 mg/kg/injection, schedule: Q01DX Z (ip), vehicle: carboxymethylcellulose (CMC) 93 % of control | dose: 10.0 mg/kg/injection, schedule: Q01DX Z (ip), vehicle: carboxymethylcellulose (CMC) 100 % of control

COc1cc(N(CCCl)CCCl)ccc1NC(=O)c1ccccc1
inactive: dose: 100.0 mg/kg/injection, schedule: Q01DX001 (ip), vehicle: other 98 % of control | dose: 200.0 mg/kg/injection, schedule: Q01DX001 (ip), vehicle: other 98 % of control | dose: 400.0 mg/kg/injection, schedule: Q01DX001 (ip), vehicle: other 109 % of control

COC(=O)C1CN(C)CCC1=O (centres undefined)
inactive: [11] 97 % of control | [12] 106 % of control | [13] 95 % of control

O=C(COCC(=O)N/N=C/c1ccc(Cl)cc1Cl)N/N=C\c1cc(Cl)cc(Cl)c1
inactive: [1] 93 % of control | [2] 88 % of control

ICC1COCC(CI)O1 (centres undefined)
inactive: [17] 101 % of control | [18] 113 % of control | [19] 106 % of control

CCOC(=O)Cc1cc(=O)c2ccccc2[nH]1
inactive: dose: 100.0 mg/kg/injection, schedule: Q04DX003 (ip), vehicle: acetone 96 % of control | dose: 200.0 mg/kg/injection, schedule: Q04DX003 (ip), vehicle: acetone 97 % of control | dose: 400.0 mg/kg/injection, schedule: Q04DX003 (ip), vehicle: acetone 103 % of control

O=C(O)COCC(F)(F)C(F)(F)C(F)(F)COCC(=O)O
inactive: [8] 92 % of control | [20] 97 % of control | [9] 97 % of control | [21] 98 % of control | [10] 110 % of control | dose: 400.0 mg/kg/injection, schedule: Q04DX003 (ip), vehicle: saline 93 % of control

O=C(O)C1=NNC(C(=O)O)=NN1
inactive: dose: 100.0 mg/kg/injection, schedule: Q01DX001 (ip), vehicle: Klucel (hydroxypropylcellulose) (HPC) 92 % of control | dose: 200.0 mg/kg/injection, schedule: Q01DX001 (ip), vehicle: Klucel (hydroxypropylcellulose) (HPC) 100 % of control | dose: 400.0 mg/kg/injection, schedule: Q01DX001 (ip), vehicle: Klucel (hydroxypropylcellulose) (HPC) 104 % of control

C=CC1CN2CCC1CC2C(=O)c1ccnc2ccc(OC)cc12 (centres undefined)
inactive: dose: 50.0 mg/kg/injection, schedule: Q01DX001 (ip), vehicle: saline 98 % of control | [11] 102 % of control | [12] 95 % of control | [13] 101 % of control

O=C(NCCCCCCNC(=O)c1ccccc1)c1ccccc1
inactive: [4] 100 % of control | [5] 103 % of control | [6] 97 % of control | [7] 97 % of control

CC1C(C)(C)P(=O)(OCCOP2(=O)C(C)(C)C(C)C2(C)C)C1(C)C (centres undefined)
inactive: [20] 100 % of control | [21] 94 % of control

CN1C(=O)CC(C(=O)c2ccc(N3C(=O)C=CC3=O)cc2)(c2ccccc2)C1=O (centres undefined)
inactive: dose: 25.0 mg/kg/injection, schedule: Q04DX002 (ip), vehicle: saline with Tween-80 102 % of control | dose: 50.0 mg/kg/injection, schedule: Q04DX002 (ip), vehicle: saline with Tween-80 98 % of control

O=C1c2ccccc2C(=O)N1C/C(Cl)=C/Cl
inactive: [17] 92 % of control | dose: 100.0 mg/kg/injection, schedule: Q04DX003 (ip), vehicle: saline with Tween-80 97 % of control | [18] 93 % of control | dose: 200.0 mg/kg/injection, schedule: Q04DX003 (ip), vehicle: saline with Tween-80 93 % of control | [19] 91 % of control | dose: 400.0 mg/kg/injection, schedule: Q04DX003 (ip), vehicle: saline with Tween-80 92 % of control

CC1=C(N2CCCC2)CCCC1=O
inactive: dose: 100.0 mg/kg/injection, schedule: Q04DX002 (ip), vehicle: saline 112 % of control | dose: 200.0 mg/kg/injection, schedule: Q04DX002 (ip), vehicle: saline 107 % of control

NC(=O)COc1ccc(F)cc1F
inactive: dose: 100.0 mg/kg/injection, schedule: Q04DX002 (ip), vehicle: saline with Tween-80 101 % of control | dose: 200.0 mg/kg/injection, schedule: Q04DX002 (ip), vehicle: saline with Tween-80 97 % of control | dose: 400.0 mg/kg/injection, schedule: Q04DX002 (ip), vehicle: saline with Tween-80 93 % of control

CC1(C)c2ccccc2C(O)(CCl)c2ccccc21
inactive: [14] 104 % of control | [15] 112 % of control | [16] 94 % of control

N#Cc1ccc[n+](Cc2ccc3c(c2)OCO3)c1
inactive: dose: 75.0 mg/kg/injection, schedule: Q01DX001 (ip), vehicle: saline 106 % of control | dose: 150.0 mg/kg/injection, schedule: Q01DX001 (ip), vehicle: saline 106 % of control
